Measurements: the supplement of paper PMC10307832

Assays:
Test in all cases: relative viability (nuclei count vs DMSO), 5 days (fraction); higher = more cells survive
[1] = compound: C1=CC=C2C(=C1)C=CC(=C2SSC3=C(C=CC4=CC=CC=C43)O)O [IPA-3] + COc1cccc2cc(-c3nc([C@H]4CC[C@H](C(=O)O)CC4)n4ncnc(N)c34)[nH]c12 [OSI-027] (partner 0.5 µM)
Summary of the method: (§1)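 One day after seeding in 1536-well plates, lung cancer cell lines were dosed by pin tool. Dosing was either single-drug or a fixed anchor-drug dose plus five library-drug doses (not always all listed) in √10 steps. After 5 days, nuclei were stained in one fix-and-stain step and counted on 4× images, and relative viability is the nuclei count of treated wells over that of vehicle wells, given as the median of duplicate plates.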

[2] = compound: C1=CC=C2C(=C1)C=CC(=C2SSC3=C(C=CC4=CC=CC=C43)O)O [IPA-3] + Cc1nc(Nc2ncc(C(=O)Nc3c(C)cccc3Cl)s2)cc(N2CCN(CCO)CC2)n1 [Dasatinib] (partner 0.075 µM)
Summary of the method: as §1

[3] = compound: Cc1ccc(-n2nc(C(C)(C)C)cc2NC(=O)Nc2ccc(OCCN3CCOCC3)c3ccccc23)cc1 [Doramapimod] + CC(=O)Nc1cccc(-n2c(=O)n(C3CC3)c(=O)c3c(Nc4ccc(I)cc4F)n(C)c(=O)c(C)c32)c1 [Trametinib] (partner 0.02 µM)
Summary of the method: as §1

[4] = compound: Cc1ccc(-n2nc(C(C)(C)C)cc2NC(=O)Nc2ccc(OCCN3CCOCC3)c3ccccc23)cc1 [Doramapimod] + N=C(N)NC(=N)NCCc1ccccc1 [Phenformin] (partner 250 µM)
Summary of the method: as §1

| Cell Line | relative viability ([1]; first compound 0.2 µM) | relative viability ([1]; first compound 0.6325 µM) | relative viability ([1]; first compound 2 µM) | relative viability ([1]; first compound 6.325 µM) | relative viability ([1]; first compound 20 µM) | relative viability ([2]; first compound 0.2 µM) | relative viability ([2]; first compound 0.6325 µM) | relative viability ([2]; first compound 2 µM) | relative viability ([2]; first compound 6.325 µM) | relative viability ([2]; first compound 20 µM) | relative viability ([3]; first compound 0.02 µM) | relative viability ([3]; first compound 0.06325 µM) | relative viability ([3]; first compound 0.2 µM) | relative viability ([3]; first compound 0.6325 µM) | relative viability ([3]; first compound 2 µM) | relative viability ([4]; first compound 0.02 µM) | relative viability ([4]; first compound 0.06325 µM) | relative viability ([4]; first compound 0.2 µM) | relative viability ([4]; first compound 0.6325 µM) | relative viability ([4]; first compound 2 µM) |
| --- | --- | --- | --- | --- | --- | --- | --- | --- | --- | --- | --- | --- | --- | --- | --- | --- | --- | --- | --- | --- |
| NCI-H2009 | 0.918 | 0.6 | 0.649 | 0.59 | 0.359 | 0.346 | 0.307 | 0.287 | 0.295 | 0.19 | 0.285 | 0.247 | 0.351 | 0.308 | 0.239 | 0.506 | 0.543 | 0.546 | 0.478 | 0.408 |
| NCI-H2342 | 0.663 | 0.619 | 0.68 | 0.757 | 0.743 | 0.308 | 0.346 | 0.343 | 0.375 | 0.305 | 0.838 | 0.844 | 0.754 | 0.817 | 0.847 | 0.617 | 0.594 | 0.593 | 0.704 | 0.497 |
| ChaGo-K-1 | 0.708 | 0.551 | 0.574 | 0.603 | 0.628 | 0.699 | 0.54 | 0.526 | 0.621 | 0.614 | 0.753 | 0.811 | 0.851 | 0.844 | 0.725 | 0.476 | 0.507 | 0.459 | 0.534 | 0.428 |
| COR-L23 | 1.05 | 0.771 | 0.795 | 0.696 | 0.552 | 0.679 | 0.506 | 0.503 | 0.46 | 0.125 | 0.675 | 0.651 | 0.588 | 0.607 | 0.616 | 0.436 | 0.467 | 0.398 | 0.422 | 0.391 |
| EMC-BAC-2 | 0.435 | 0.379 | 0.367 | 0.482 | 0.438 | 0.309 | 0.458 | 0.302 | 0.311 | 0.292 | 0.884 | 0.816 | 0.894 | 0.873 | 0.766 | 0.53 | 0.606 | 0.586 | 0.678 | 0.503 |
| LCLC-103H | 0.442 | 0.444 | 0.463 | 0.486 | 0.505 | 0.492 | 0.482 | 0.422 | 0.56 | 0.566 | 0.656 | 0.675 | 0.683 | 0.68 | 0.679 | 0.322 | 0.345 | 0.298 | 0.322 | 0.32 |
| LK-2 | 0.183 | 0.214 | 0.194 | 0.27 | 0.165 | 0.261 | 0.27 | 0.222 | 0.28 | 0.282 | 0.587 | 0.727 | 0.715 | 0.31 | 0.647 | 0.278 | 0.332 | 0.382 | 0.282 | 0.246 |
